Where two headings read alike, the source gives them in different places.
Tests used:
[1] = tested on: human lung cancer NCI-H1975 subcutaneous xenograft tumor; assay: NCI-H1975 subcutaneous xenograft tumor BALB/c nude mouse model; assay type: in vivo, BALB/c nude mice
Protocol: Human lung cancer NCI-H1975 cells were cultured in vitro in a monolayer under the conditions of 1640 medium with 10% fetal bovine serum, 1% double antibodies and incubated at 37° C. in a 5% CO2 incubator. Routine treatment passages were performed twice a week. When the cell saturation was 80%-90% and the number reached the required level, the cells were collected, counted, and inoculated.
BALB/c nude mice, female, 6-8 weeks old, weighing 18-22 g. Provided by Shanghai Xipuer-Bikai Laboratory Animal Co., Ltd. or other qualified suppliers.
Tumor tissue was collected from H1975 tumor-bearing mice of human lung cancer xenograft model, cut into 2-3 mm diameter tumor blocks and inoculated subcutaneously at the right anterior scapula of Balb/c nude mice. When the average tumor volume was 145 mm^3, the tumors were randomly grouped according to their size, and the day of grouping was defined as day 0.
The experimental index was to examine whether tumor growth was inhibited, delayed or cured. Tumor diameters were measured with vernier calipers twice a week. The calculation formula of tumor volume was: V=0.5a×b^2, wherein a and b represented the long and short diameters of the tumor, respectively. The antitumor efficacy of the compounds was evaluated by TGI (%) or relative tumor proliferation rate T/C (%). TGI (%), reflecting the tumor growth inhibition rate. Calculation of TGI (%): TGI (%)=[(1−(average tumor volume at the end of administration of a treatment group−average tumor volume at the beginning of administration of this treatment group))/(average tumor volume at the end of treatment in the solvent control group−average tumor volume at the beginning of treatment of the solvent control group)]×100%. Relative tumor proliferation rate T/C (%): The calculation formula was as follows: T/C %=TRTV/CRTV×100% (TRTV: RTV in the treatment group; CRTV: RTV in the negative control group). The relative tumor volume (RTV) was calculated according to the results of tumor measurement, and the formula was RTV=Vt/V0, wherein V0 was the average tumor volume measured at the time of group administration (i.e., d0), and Vt was the average tumor volume at a certain measurement, TRTV and CRTV were taken on the same day. After the experiment, the tumor weight will be detected, and the percentage of T/Cweight will be calculated. Tweight and Cweight represented the tumor weight of the administration group and the solvent control group, respectively.

[2] = Pharmacokinetic study, single intravenous and oral administration in rats; assay type: in vivo; conditions: rat, plasma; for AUC(0-t): read-out: Exposure of AUC0-last
Protocol: The purpose of this experiment was to investigate the pharmacokinetics (PK) of the compounds in different species after single intravenous and single oral administration of the test compounds.
After intravenous or oral administration, blood samples were collected from the animals, and the actual time of blood collection was recorded. After the blood samples were collected, the samples were immediately transferred to the labelled centrifuge tube containing K2-EDTA, and then centrifuged to obtain plasma. Plasma was transferred to pre-cooled centrifuge tubes, quick-frozen in dry ice and stored in an ultra-low temperature refrigerator at −70±10° C. until LC-MS/MS analysis was performed.
The plasma drug concentration data of the compounds were processed using pharmacokinetic software with a non-compartmental model. The peak concentration (Cmax) and time to peak (Tmax), as well as the quantifiable end time were obtained directly from the plasma concentration-time curve. The following pharmacokinetic parameters were calculated using the log-linear trapezoidal method: half-life (T1/2), apparent volume of distribution (Vdss), and clearance (Cl), area under the time-plasma concentration curve from point 0 to the end time point (AUC0-last), and initial concentration (C0).

[3] = Compound stability test in plasma (monkey); assay type: in vitro ADME, cynomolgus monkey
Protocol: In this study, mouse, SD rat, Beagle, cynomolgus monkey and human plasma were used as materials to investigate the stability of the tested compounds in the plasma of the above five species. Propantheline, Enalapril, Bisacodyl and Procaine were used as control compounds.
The experimental conditions for the test compounds were as follows: • test concentration: 2 μM (DMSO ≤0.5%); • incubation times: 0, 10, 30, 60 and 120 minutes; • frozen plasma (from multiple species) was used in the test system; • incubation conditions: 37° C.
The mixed frozen plasma was thawed in a 37° C. water bath prior to the experiment. Plasma was centrifuged at 4000 rpm for 5 minutes and cleared if there was a clot. The pH will be adjusted to 7.4±0.1 if required.
The intermediate solution of 1 mM compound and positive control was prepared by diluting 10 mM stock solution with 90 μL of dimethyl sulfoxide. 100 μM solution was prepared by diluting 20 μL of intermediate solution (1 mM) with 180 μL of 45% methanol/water.
2 μL of 100 μM solution was added to 98 μL of blank plasma to achieve a final concentration of 2 μM (in duplicate) of the sample, and the sample was incubated in a 37° C. water bath. At each time point (0, 10, 30, 60 and 120 min), 400 μL of termination solution (200 ng/mL toluenesulfonylurea and 200 ng/mL labetalol, 50% ACN/MeOH) was added to precipitate the proteins and mixed thoroughly. […]

- clearance ([2]; intravenous injection 2 mg/kg): 90.5 mL/min/kg
- half-life ([2]; intravenous injection 2 mg/kg): 2.62 h
- AUC ([2]; intravenous injection 2 mg/kg, read-out: Exposure of AUC): 0.548 µM·h
- Vd ([2]; intravenous injection 2 mg/kg, read-out: Vdss): 18 L/kg
- bioavailability ([2]; oral 10 mg/kg): 21.6%
- AUC(0-t) ([2]; oral 10 mg/kg): 0.593 µM·h
- bioavailability ([2]; oral 20 mg/kg): 57.1%
- AUC(0-t) ([2]; oral 20 mg/kg): 3.13 µM·h
- bioavailability ([2]; oral 50 mg/kg): 68.6%
- AUC(0-t) ([2]; oral 50 mg/kg): 9.39 µM·h
- bioavailability ([2]; oral 200 mg/kg): 34.5%
- AUC(0-t) ([2]; oral 200 mg/kg): 18.9 µM·h
- In vitro plasma stability (Residual percentage) ([3]; 120 minutes, 2 μM, 37° C.): 93.7%
- half-life at 2 µM ([3]; pH 7.4, 37° C., read-out: In vitro plasma half-life T1/2): > 4.82 h
SMILES: C=CC(=O)Nc1cc(Nc2ncc(C(=O)OC(C)C)c(-c3cn(OC)c4ccccc34)n2)c(OC)cc1N(C)CCN(C)C.CS(=O)(=O)O [Compound 1]
- Tumor volume (Day 0) ([1]; Day 0 (grouping), mean ± standard error, n = 6): 153 ± 7 mm^3
- RTV ([1]; Day 20): 0.20 ± 0.10
- T/C ([1]; Day 20): 1.35%
- TGI ([1]; Day 20): 105.3%
- Tumor volume (Day 20) ([1]; Day 20, mean ± standard error, n = 6): 33 ± 16 mm^3
